Numbers after ± are expanded uncertainties.
Test: xn = mol fraction of the nth substance listed
Details: Liquid, Vibrating tube method

CCCCCCCC [octane] + CCCCCCC
mass density [kg/m3]
Details	100 kPa	500 kPa	5000 kPa	10000 kPa	15000 kPa	20000 kPa	25000 kPa	30000 kPa	35000 kPa	40000 kPa
293.15 K, x2 = 0.25	698.22 ± 1.7	698.6 ± 1.7	702.4 ± 1.7	706.4 ± 1.7	710.2 ± 1.7	713.8 ± 1.8	717.2 ± 1.8	720.4 ± 1.8	723.6 ± 1.8	726.6 ± 1.8
293.15 K, x2 = 0.5002	693.9 ± 1.7	694.3 ± 1.7	698.1 ± 1.7	702.2 ± 1.7	706 ± 1.7	709.7 ± 1.8	713.2 ± 1.8	716.5 ± 1.8	719.6 ± 1.8	722.7 ± 1.8
293.15 K, x2 = 0.7502	689 ± 1.7	689.4 ± 1.7	693.4 ± 1.7	697.5 ± 1.7	701.4 ± 1.7	705.1 ± 1.8	708.7 ± 1.8	712 ± 1.8	715.2 ± 1.8	718.4 ± 1.8
303.15 K, x2 = 0.25	690.1 ± 1.7	690.4 ± 1.7	694.5 ± 1.7	698.8 ± 1.7	702.8 ± 1.7	706.6 ± 1.8	710.2 ± 1.8	713.6 ± 1.8	716.9 ± 1.8	720.1 ± 1.8
303.15 K, x2 = 0.5002	685.6 ± 1.7	686 ± 1.7	690.2 ± 1.7	694.5 ± 1.7	698.6 ± 1.7	702.5 ± 1.8	706.1 ± 1.8	709.6 ± 1.8	712.9 ± 1.8	716.1 ± 1.8
303.15 K, x2 = 0.7502	680.7 ± 1.7	681 ± 1.7	685.3 ± 1.7	689.7 ± 1.7	693.9 ± 1.7	697.8 ± 1.8	701.6 ± 1.8	705.1 ± 1.8	708.5 ± 1.8	711.7 ± 1.8
313.15 K, x2 = 0.25	681.8 ± 1.7	682.2 ± 1.7	686.5 ± 1.7	691.1 ± 1.7	695.4 ± 1.7	699.4 ± 1.8	703.2 ± 1.8	706.8 ± 1.8	710.2 ± 1.8	713.5 ± 1.8
313.15 K, x2 = 0.5002	677.3 ± 1.7	677.7 ± 1.7	682.1 ± 1.7	686.8 ± 1.7	691.1 ± 1.7	695.2 ± 1.8	699.1 ± 1.8	702.7 ± 1.8	706.2 ± 1.8	709.6 ± 1.8
313.15 K, x2 = 0.7502	672.2 ± 1.7	672.6 ± 1.7	677.2 ± 1.7	681.9 ± 1.7	686.3 ± 1.7	690.5 ± 1.8	694.4 ± 1.8	698.1 ± 1.8	701.7 ± 1.8	705.1 ± 1.8
323.15 K, x2 = 0.25	673.4 ± 1.7	673.8 ± 1.7	678.5 ± 1.7	683.4 ± 1.7	687.9 ± 1.7	692.1 ± 1.8	696.1 ± 1.8	699.9 ± 1.8	703.6 ± 1.8	707 ± 1.8
323.15 K, x2 = 0.5002	668.7 ± 1.7	669.2 ± 1.7	674 ± 1.7	678.9 ± 1.7	683.6 ± 1.7	687.9 ± 1.8	692 ± 1.8	695.8 ± 1.8	699.5 ± 1.8	703 ± 1.8
323.15 K, x2 = 0.7502	663.5 ± 1.7	664 ± 1.7	668.9 ± 1.7	674 ± 1.7	678.7 ± 1.7	683.1 ± 1.8	687.3 ± 1.8	691.2 ± 1.8	694.9 ± 1.8	698.5 ± 1.8
333.15 K, x2 = 0.25	664.9 ± 1.7	665.4 ± 1.7	670.4 ± 1.7	675.6 ± 1.7	680.4 ± 1.7	684.9 ± 1.8	689.2 ± 1.8	693.2 ± 1.8	696.9 ± 1.8	700.6 ± 1.8
333.15 K, x2 = 0.5002	660.2 ± 1.7	660.6 ± 1.7	665.8 ± 1.7	671.1 ± 1.7	676 ± 1.7	680.6 ± 1.8	684.9 ± 1.8	689 ± 1.8	692.8 ± 1.8	696.5 ± 1.8
333.15 K, x2 = 0.7502	654.8 ± 1.7	655.3 ± 1.7	660.6 ± 1.7	666 ± 1.7	671.1 ± 1.7	675.8 ± 1.8	680.2 ± 1.8	684.3 ± 1.8	688.2 ± 1.8	692 ± 1.8
353.15 K, x2 = 0.25	647.5 ± 1.7	648.1 ± 1.7	653.9 ± 1.7	659.9 ± 1.7	665.4 ± 1.8	670.5 ± 1.8	675.2 ± 1.8	679.6 ± 1.8	683.7 ± 1.8	687.7 ± 1.8
353.15 K, x2 = 0.5002	642.5 ± 1.7	643.1 ± 1.7	649.1 ± 1.7	655.2 ± 1.7	660.8 ± 1.8	666 ± 1.8	670.8 ± 1.8	675.3 ± 1.8	679.5 ± 1.8	683.6 ± 1.8
353.15 K, x2 = 0.7502	636.9 ± 1.7	637.4 ± 1.7	643.6 ± 1.7	649.9 ± 1.7	655.7 ± 1.8	661 ± 1.8	665.9 ± 1.8	670.4 ± 1.8	674.7 ± 1.8	678.9 ± 1.8
373.15 K, x2 = 0.25	–	630.3 ± 2.7	637.1 ± 2.7	644.1 ± 2.7	650.3 ± 2.7	656 ± 2.7	661.2 ± 2.8	666.1 ± 2.8	670.7 ± 2.8	675.1 ± 2.8
373.15 K, x2 = 0.5002	–	625 ± 2.7	632 ± 2.7	639.2 ± 2.7	645.6 ± 2.7	651.4 ± 2.7	656.7 ± 2.8	661.7 ± 2.8	666.3 ± 2.8	670.8 ± 2.8
373.15 K, x2 = 0.7502	–	619 ± 2.7	626.3 ± 2.7	633.6 ± 2.7	640.2 ± 2.7	646.2 ± 2.7	651.7 ± 2.8	656.7 ± 2.8	661.5 ± 2.8	666 ± 2.8

CCCCCCC [heptane] + CCO
mass density [kg/m3]
Details	100 kPa	500 kPa	5000 kPa	10000 kPa	15000 kPa	20000 kPa	25000 kPa	30000 kPa	35000 kPa	40000 kPa
293.15 K, x1 = 0.2505	737.7 ± 1.7	738.1 ± 1.7	742.1 ± 1.7	746.4 ± 1.7	750.4 ± 1.7	754.3 ± 1.7	757.9 ± 1.7	761.4 ± 1.7	764.7 ± 1.8	768 ± 1.8
293.15 K, x1 = 0.5004	711 ± 1.8	711.3 ± 1.8	715.4 ± 1.7	719.8 ± 1.7	723.8 ± 1.7	727.7 ± 1.7	731.3 ± 1.7	734.8 ± 1.8	738.1 ± 1.8	741.4 ± 1.8
293.15 K, x1 = 0.7501	694.3 ± 1.7	694.6 ± 1.7	698.7 ± 1.7	703 ± 1.7	707.1 ± 1.7	710.9 ± 1.7	714.6 ± 1.8	718 ± 1.8	721.4 ± 1.8	724.6 ± 1.8
303.15 K, x1 = 0.2505	728.9 ± 1.7	729.3 ± 1.7	733.6 ± 1.7	738.2 ± 1.7	742.4 ± 1.7	746.5 ± 1.7	750.3 ± 1.7	754 ± 1.7	757.5 ± 1.8	760.8 ± 1.8
303.15 K, x1 = 0.5004	702.1 ± 1.7	702.5 ± 1.7	706.9 ± 1.7	711.5 ± 1.7	715.8 ± 1.7	719.9 ± 1.7	723.8 ± 1.7	727.4 ± 1.8	730.9 ± 1.8	734.3 ± 1.8
303.15 K, x1 = 0.7501	685.4 ± 1.7	685.8 ± 1.7	690.3 ± 1.7	694.9 ± 1.7	699.2 ± 1.7	703.3 ± 1.7	707.1 ± 1.8	710.8 ± 1.8	714.3 ± 1.8	717.6 ± 1.8
313.15 K, x1 = 0.2505	719.9 ± 1.7	720.3 ± 1.7	725 ± 1.7	729.8 ± 1.7	734.3 ± 1.7	738.6 ± 1.7	742.6 ± 1.7	746.5 ± 1.7	750.1 ± 1.8	753.7 ± 1.8
313.15 K, x1 = 0.5004	693 ± 1.7	693.4 ± 1.7	698.2 ± 1.7	703.1 ± 1.7	707.7 ± 1.7	712 ± 1.7	716.1 ± 1.8	720 ± 1.8	723.7 ± 1.8	727.2 ± 1.8
313.15 K, x1 = 0.7501	676.4 ± 1.7	676.9 ± 1.7	681.6 ± 1.7	686.6 ± 1.7	691.2 ± 1.7	695.5 ± 1.8	699.6 ± 1.8	703.4 ± 1.8	707.1 ± 1.8	710.6 ± 1.8
323.15 K, x1 = 0.2505	710.6 ± 1.7	711.1 ± 1.7	716.1 ± 1.7	721.2 ± 1.7	726.1 ± 1.7	730.6 ± 1.7	734.8 ± 1.7	738.9 ± 1.8	742.7 ± 1.8	746.4 ± 1.8
323.15 K, x1 = 0.5004	683.6 ± 1.7	684.1 ± 1.7	689.2 ± 1.7	694.5 ± 1.7	699.4 ± 1.7	704 ± 1.7	708.4 ± 1.8	712.4 ± 1.8	716.3 ± 1.8	720.1 ± 1.8
323.15 K, x1 = 0.7501	667.2 ± 1.7	667.6 ± 1.7	672.8 ± 1.7	678.1 ± 1.7	683 ± 1.7	687.7 ± 1.8	692 ± 1.8	696 ± 1.8	699.9 ± 1.8	703.6 ± 1.8
333.15 K, x1 = 0.2505	701.1 ± 1.7	701.6 ± 1.7	706.9 ± 1.7	712.5 ± 1.7	717.6 ± 1.7	722.4 ± 1.7	726.9 ± 1.7	731.2 ± 1.8	735.2 ± 1.8	739.1 ± 1.8
333.15 K, x1 = 0.5004	674 ± 1.8	674.5 ± 1.7	680 ± 1.7	685.7 ± 1.7	691 ± 1.7	695.9 ± 1.7	700.5 ± 1.8	704.8 ± 1.8	708.9 ± 1.8	712.8 ± 1.8
333.15 K, x1 = 0.7501	657.7 ± 1.7	658.2 ± 1.7	663.8 ± 1.7	669.6 ± 1.7	674.9 ± 1.7	679.8 ± 1.8	684.3 ± 1.8	688.6 ± 1.8	692.7 ± 1.8	696.6 ± 1.8
353.15 K, x1 = 0.2505	–	681.4 ± 1.7	687.7 ± 1.7	694.1 ± 1.7	700 ± 1.7	705.5 ± 1.7	710.5 ± 1.7	715.3 ± 1.8	719.7 ± 1.8	724 ± 1.8
353.15 K, x1 = 0.5004	–	654.2 ± 1.7	660.8 ± 1.7	667.5 ± 1.7	673.6 ± 1.7	679.1 ± 1.7	684.3 ± 1.8	689.1 ± 1.8	693.7 ± 1.8	698.1 ± 1.8
353.15 K, x1 = 0.7501	–	638.4 ± 1.7	645.1 ± 1.7	651.8 ± 1.7	657.9 ± 1.7	663.5 ± 1.8	668.6 ± 1.8	673.4 ± 1.8	678 ± 1.8	682.3 ± 1.8
373.15 K, x1 = 0.2505	–	659.3 ± 2.7	666.9 ± 2.7	674.5 ± 2.7	681.4 ± 2.7	687.6 ± 2.7	693.3 ± 2.7	698.6 ± 2.7	703.6 ± 2.7	708.4 ± 2.8
373.15 K, x1 = 0.5004	–	632.2 ± 2.7	640.2 ± 2.7	648.1 ± 2.7	655.3 ± 2.7	661.7 ± 2.7	667.5 ± 2.7	672.9 ± 2.8	678 ± 2.8	682.9 ± 2.8
373.15 K, x1 = 0.7501	–	617.2 ± 2.7	625.3 ± 2.7	633.3 ± 2.7	640.4 ± 2.7	646.8 ± 2.7	652.6 ± 2.7	658 ± 2.8	663 ± 2.8	667.9 ± 2.8
